Assay results taken from ChEMBL document CHEMBL5352387, “Synthesis and biological evaluation of tyrosine derivatives as peripheral 5HT2A receptor antagonists for nonalcoholic fatty liver disease” (Eur J Med Chem, 2022).
Values belong to the compound of their own block, whether it stands above or below them. Active and inactive are the calls of the source. The rule behind the calls is not given here.

Key:
[1] = biological target: T1, 5-hydroxytryptamine receptor 2A (Homo sapiens, UniProt P28223); assay: Inhibition of 5HT2A receptor (unknown origin) expressed in HEK293 cells at 1 uM by FLIPR Calcium 6 dye based assay relative to control; assay type: functional, cell-based
T1 sequence (P28223 whole entry): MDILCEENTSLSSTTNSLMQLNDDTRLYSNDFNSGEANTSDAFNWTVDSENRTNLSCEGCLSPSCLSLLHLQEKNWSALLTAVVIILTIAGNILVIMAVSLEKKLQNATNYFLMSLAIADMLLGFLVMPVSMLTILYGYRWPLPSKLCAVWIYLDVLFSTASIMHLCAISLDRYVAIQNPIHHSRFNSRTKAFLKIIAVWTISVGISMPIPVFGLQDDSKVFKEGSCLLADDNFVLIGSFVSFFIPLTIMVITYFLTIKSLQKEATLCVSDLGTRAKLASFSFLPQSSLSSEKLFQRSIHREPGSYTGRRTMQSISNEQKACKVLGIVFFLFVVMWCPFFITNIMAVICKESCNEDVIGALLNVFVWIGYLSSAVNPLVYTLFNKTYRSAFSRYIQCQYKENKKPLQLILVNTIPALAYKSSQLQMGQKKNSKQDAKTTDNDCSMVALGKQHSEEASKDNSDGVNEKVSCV

[2] = Drug concentration in plasma of ICR mouse at 5 mg/kg, iv measured at 1 hr; assay type: ADME, organism-based
[3] = Drug concentration in brain of ICR mouse at 5 mg/kg, iv measured at 1 hr; assay type: ADME, organism-based; details: read-out: Ct
[4] = biological target: T1, 5-hydroxytryptamine receptor 2A; assay: Inhibition of 5HT2A receptor (unknown origin) expressed in HEK293 cells by FLIPR Calcium 6 dye based assay; assay type: functional, cell-based
[5] = Stability in mouse liver microsomes assessed as parent compound remaining measured after 30 mins; assay type: ADME, Microsome; details: read-out: Stability
[6] = Stability in rat liver microsomes assessed as parent compound remaining measured after 30 mins; assay type: ADME, Microsome; details: read-out: Stability
[7] = Stability in human liver microsomes assessed as parent compound remaining measured after 30 mins; assay type: ADME, Microsome; details: read-out: Stability
Cytochrome P450 1A2 = biological target: T2, Cytochrome P450 1A2 (Homo sapiens, UniProt P05177); assay: Inhibition of CYP1A2 (unknown origin) relative to control; assay type: ADME
T2 sequence (P05177 whole entry): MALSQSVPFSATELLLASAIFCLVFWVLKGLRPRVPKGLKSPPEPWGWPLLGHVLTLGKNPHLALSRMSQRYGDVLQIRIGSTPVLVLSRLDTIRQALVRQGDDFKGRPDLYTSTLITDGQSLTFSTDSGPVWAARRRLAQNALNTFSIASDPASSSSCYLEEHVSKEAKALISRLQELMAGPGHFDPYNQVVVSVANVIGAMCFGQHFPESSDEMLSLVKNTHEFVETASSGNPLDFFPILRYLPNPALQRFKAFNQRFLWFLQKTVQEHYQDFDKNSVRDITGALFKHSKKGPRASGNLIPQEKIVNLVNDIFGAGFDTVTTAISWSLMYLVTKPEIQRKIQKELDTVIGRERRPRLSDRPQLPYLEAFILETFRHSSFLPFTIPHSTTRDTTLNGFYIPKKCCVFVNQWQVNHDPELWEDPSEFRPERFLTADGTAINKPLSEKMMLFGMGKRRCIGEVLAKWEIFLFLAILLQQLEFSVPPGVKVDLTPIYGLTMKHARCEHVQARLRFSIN

Cytochrome P450 2C9 = Cytochrome P450 2C9 (Homo sapiens, UniProt P11712); assay: Inhibition of CYP2C9 (unknown origin) relative to control; assay type: ADME
Cytochrome P450 2C19 = Cytochrome P450 2C19 (Homo sapiens, UniProt P33261); assay: Inhibition of CYP2C19 (unknown origin) relative to control; assay type: ADME
Cytochrome P450 2C19, sequence (P33261 whole entry): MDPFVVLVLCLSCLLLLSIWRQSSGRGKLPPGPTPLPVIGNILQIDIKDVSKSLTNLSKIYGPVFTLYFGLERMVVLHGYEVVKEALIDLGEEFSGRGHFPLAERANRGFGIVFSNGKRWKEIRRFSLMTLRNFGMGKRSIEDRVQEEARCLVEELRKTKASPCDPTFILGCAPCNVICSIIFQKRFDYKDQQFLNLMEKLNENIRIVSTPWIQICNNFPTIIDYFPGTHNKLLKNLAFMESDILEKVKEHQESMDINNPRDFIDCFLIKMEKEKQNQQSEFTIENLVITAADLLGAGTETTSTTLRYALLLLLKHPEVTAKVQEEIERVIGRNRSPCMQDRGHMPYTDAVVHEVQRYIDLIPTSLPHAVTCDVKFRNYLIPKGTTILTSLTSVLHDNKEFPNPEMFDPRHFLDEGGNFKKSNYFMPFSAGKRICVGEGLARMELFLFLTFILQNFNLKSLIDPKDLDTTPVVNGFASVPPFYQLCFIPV

Cytochrome P450 2D6 = Cytochrome P450 2D6 (Homo sapiens, UniProt P10635); assay: Inhibition of CYP2D6 (unknown origin) relative to control; assay type: ADME
Cytochrome P450 2D6, sequence (P10635 whole entry): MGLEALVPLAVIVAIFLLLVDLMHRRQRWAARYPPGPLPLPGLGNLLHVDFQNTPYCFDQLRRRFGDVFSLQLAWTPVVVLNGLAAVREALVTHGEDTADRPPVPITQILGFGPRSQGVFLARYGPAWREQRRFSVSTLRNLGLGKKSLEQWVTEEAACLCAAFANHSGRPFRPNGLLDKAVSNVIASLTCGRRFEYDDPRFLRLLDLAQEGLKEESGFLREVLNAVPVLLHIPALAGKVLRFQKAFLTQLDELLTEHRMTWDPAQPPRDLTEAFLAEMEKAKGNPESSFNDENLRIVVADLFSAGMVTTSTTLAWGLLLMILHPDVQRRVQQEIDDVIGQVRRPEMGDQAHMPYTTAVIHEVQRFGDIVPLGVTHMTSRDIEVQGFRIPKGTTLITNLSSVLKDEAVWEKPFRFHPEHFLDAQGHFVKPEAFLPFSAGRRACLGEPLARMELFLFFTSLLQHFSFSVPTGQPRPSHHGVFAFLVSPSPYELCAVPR

Cytochrome P450 3A4 = Cytochrome P450 3A4 (Homo sapiens, UniProt P08684); assay: Inhibition of CYP3A4 (unknown origin) relative to control; assay type: ADME
Cytochrome P450 3A4, sequence (P08684 whole entry): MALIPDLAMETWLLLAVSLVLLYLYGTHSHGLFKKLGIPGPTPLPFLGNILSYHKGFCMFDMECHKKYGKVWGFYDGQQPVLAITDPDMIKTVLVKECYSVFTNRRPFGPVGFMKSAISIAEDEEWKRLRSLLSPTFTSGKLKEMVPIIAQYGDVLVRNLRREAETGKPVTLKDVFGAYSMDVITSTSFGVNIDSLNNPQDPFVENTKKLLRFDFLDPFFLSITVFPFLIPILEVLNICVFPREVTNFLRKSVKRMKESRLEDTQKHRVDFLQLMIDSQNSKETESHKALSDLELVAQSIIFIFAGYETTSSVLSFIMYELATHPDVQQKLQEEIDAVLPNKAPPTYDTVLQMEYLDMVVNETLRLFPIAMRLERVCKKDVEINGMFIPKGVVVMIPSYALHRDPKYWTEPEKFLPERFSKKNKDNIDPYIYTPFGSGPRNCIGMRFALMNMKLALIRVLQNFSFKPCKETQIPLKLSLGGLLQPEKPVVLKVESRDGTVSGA

hERG = hERG (Homo sapiens, UniProt Q12809); assay: Inhibition of hERG at 10 uM relative to control; assay type: toxicity
hERG, sequence (Q12809 whole entry): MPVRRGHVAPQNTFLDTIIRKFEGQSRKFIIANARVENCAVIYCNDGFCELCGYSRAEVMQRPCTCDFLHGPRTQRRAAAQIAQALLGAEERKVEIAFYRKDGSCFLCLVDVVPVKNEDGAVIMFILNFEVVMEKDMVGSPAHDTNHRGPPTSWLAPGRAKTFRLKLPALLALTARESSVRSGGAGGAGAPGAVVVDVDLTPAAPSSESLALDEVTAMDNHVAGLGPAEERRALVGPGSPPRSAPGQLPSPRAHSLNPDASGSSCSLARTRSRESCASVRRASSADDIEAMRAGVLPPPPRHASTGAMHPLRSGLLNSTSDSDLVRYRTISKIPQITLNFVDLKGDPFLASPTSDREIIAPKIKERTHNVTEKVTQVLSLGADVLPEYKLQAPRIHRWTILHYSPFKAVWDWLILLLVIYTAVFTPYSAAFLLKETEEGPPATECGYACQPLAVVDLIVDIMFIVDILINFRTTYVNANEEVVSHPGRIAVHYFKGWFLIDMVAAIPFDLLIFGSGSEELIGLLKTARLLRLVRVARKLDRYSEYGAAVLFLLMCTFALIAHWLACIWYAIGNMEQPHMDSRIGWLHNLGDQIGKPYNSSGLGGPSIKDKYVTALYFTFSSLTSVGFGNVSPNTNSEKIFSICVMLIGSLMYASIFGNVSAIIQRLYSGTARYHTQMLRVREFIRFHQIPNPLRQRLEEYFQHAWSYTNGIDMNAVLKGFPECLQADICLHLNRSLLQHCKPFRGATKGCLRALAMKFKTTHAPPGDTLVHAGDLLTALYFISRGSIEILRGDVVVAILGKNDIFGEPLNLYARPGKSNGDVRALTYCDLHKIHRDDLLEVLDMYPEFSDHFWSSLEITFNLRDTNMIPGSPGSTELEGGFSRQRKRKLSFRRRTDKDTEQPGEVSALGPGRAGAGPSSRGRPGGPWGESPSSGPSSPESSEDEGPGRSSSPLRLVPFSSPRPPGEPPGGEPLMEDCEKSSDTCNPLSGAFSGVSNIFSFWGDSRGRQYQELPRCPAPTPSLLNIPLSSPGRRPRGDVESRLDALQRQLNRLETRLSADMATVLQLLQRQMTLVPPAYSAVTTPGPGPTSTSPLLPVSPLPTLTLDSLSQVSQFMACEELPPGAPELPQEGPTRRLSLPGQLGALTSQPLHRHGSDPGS

[8] = biological target: T3, 5-hydroxytryptamine receptor 1A (Homo sapiens) (UniProt P08908); assay: Inhibition of 5HT1A receptor (unknown origin) at 1 uM relative to control
T3 sequence (whole entry): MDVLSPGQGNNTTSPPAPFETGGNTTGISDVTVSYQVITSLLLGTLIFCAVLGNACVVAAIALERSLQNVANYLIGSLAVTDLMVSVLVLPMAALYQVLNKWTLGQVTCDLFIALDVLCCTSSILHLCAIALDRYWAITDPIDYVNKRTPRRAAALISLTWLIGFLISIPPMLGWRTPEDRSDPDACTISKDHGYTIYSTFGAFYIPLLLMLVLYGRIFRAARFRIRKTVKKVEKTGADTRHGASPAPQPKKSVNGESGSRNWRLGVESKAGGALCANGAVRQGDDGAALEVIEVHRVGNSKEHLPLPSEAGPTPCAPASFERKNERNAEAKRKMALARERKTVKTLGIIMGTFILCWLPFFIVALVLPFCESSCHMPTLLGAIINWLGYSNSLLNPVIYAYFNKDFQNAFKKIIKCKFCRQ

[9] = biological target: T4, 5-hydroxytryptamine receptor 2C (Homo sapiens) (UniProt P28335); assay: Inhibition of 5HT2C receptor (unknown origin) at 1 uM relative to control
T4 sequence (whole entry): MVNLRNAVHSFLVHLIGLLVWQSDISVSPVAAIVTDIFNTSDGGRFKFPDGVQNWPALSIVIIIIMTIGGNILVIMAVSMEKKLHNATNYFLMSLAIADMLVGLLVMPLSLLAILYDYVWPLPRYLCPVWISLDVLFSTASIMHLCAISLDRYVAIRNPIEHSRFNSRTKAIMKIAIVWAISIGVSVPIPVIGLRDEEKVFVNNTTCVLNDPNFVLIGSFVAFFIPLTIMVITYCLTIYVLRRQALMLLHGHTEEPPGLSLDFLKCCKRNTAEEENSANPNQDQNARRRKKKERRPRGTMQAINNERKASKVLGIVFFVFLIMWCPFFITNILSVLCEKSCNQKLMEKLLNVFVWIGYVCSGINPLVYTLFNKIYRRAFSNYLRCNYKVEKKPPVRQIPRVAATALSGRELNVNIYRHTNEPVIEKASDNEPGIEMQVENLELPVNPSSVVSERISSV

[10] = biological target: Serotonin 3 (5-HT3) receptor (Homo sapiens) (UniProt P46098+A5X5Y0+O95264+Q70Z44+Q8WXA8); assay: Inhibition of 5HT3 receptor (unknown origin) at 1 uM relative to control; assay type: protein-complex assay
[11] = biological target: 5-hydroxytryptamine receptor 4 (Homo sapiens) (UniProt Q13639); assay: Inhibition of 5HT4E receptor (unknown origin) at 1 uM relative to control
5-hydroxytryptamine receptor 4 (Homo sapiens), sequence (Q13639 whole entry): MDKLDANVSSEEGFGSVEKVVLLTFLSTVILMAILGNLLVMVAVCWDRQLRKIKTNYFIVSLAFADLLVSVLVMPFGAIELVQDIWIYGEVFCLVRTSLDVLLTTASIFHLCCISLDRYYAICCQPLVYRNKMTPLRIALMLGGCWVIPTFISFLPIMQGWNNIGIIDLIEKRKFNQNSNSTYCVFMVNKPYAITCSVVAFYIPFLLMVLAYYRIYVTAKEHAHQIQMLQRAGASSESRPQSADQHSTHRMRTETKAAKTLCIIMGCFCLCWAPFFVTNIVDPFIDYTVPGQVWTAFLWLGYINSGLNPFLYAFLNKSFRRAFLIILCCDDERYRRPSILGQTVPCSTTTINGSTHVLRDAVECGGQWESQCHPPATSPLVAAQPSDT

[12] = biological target: 5-hydroxytryptamine receptor 5A (Homo sapiens) (UniProt P47898); assay: Inhibition of 5HT5A receptor (unknown origin) at 1 uM relative to control
5-hydroxytryptamine receptor 5A (Homo sapiens), sequence (P47898 whole entry): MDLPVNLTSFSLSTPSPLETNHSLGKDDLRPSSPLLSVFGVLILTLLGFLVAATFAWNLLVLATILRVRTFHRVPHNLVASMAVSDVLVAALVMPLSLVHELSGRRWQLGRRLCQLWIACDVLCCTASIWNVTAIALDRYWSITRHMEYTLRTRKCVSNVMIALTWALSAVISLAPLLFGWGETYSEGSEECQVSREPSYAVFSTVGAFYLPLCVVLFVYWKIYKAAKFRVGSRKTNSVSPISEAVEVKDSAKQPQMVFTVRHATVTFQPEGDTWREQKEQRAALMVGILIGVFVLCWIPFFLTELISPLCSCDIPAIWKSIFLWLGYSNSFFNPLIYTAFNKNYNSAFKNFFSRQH

[13] = biological target: 5-hydroxytryptamine receptor 6 (Homo sapiens) (UniProt P50406); assay: Inhibition of 5HT6 receptor (unknown origin) at 1 uM relative to control
5-hydroxytryptamine receptor 6 (Homo sapiens), sequence (P50406 whole entry): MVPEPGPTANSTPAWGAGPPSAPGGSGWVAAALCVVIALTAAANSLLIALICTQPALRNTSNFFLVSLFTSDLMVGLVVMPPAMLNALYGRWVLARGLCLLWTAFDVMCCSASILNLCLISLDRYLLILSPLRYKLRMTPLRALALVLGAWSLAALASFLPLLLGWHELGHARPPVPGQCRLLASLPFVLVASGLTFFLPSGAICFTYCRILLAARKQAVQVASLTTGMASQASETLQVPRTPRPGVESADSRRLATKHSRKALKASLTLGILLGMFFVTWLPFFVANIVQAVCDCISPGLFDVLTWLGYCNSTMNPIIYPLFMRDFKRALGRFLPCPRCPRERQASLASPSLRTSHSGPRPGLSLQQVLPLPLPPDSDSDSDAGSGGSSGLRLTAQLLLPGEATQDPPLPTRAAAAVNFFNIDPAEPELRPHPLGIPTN

[14] = biological target: 5-hydroxytryptamine receptor 7 (Homo sapiens) (UniProt P34969); assay: Inhibition of 5HT7 receptor (unknown origin) at 1 uM relative to control
5-hydroxytryptamine receptor 7 (Homo sapiens), sequence (P34969 whole entry): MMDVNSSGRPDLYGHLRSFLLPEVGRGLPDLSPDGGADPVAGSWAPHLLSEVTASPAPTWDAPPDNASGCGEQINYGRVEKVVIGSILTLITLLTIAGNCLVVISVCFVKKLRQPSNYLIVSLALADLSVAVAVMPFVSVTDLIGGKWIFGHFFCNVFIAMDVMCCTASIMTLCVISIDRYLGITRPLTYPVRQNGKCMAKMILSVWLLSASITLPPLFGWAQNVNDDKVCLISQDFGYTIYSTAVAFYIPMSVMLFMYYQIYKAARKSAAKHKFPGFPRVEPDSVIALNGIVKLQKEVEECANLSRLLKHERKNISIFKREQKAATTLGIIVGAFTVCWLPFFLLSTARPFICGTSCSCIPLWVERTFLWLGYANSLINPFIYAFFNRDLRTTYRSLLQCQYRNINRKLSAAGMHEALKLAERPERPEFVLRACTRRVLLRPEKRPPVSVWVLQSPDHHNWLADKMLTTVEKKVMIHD

Mus musculus [15] = assay: Reduction in hepatic steatosis in high fat diet-induced NAFLD C57BL6/J mouse model at 1 mg/kg, ip measured after 8 weeks; assay type: functional, organism-based
Mus musculus [16] = assay: Reduction in hepatic steatosis in high fat diet-induced NAFLD C57BL6/J mouse model assessed as reduction in lobular inflammation at 1 mg/kg, ip measured after 8 weeks by H and E staining analysis; assay type: functional, organism-based
Mus musculus [17] = assay: Reduction in hepatic steatosis in high fat diet-induced NAFLD C57BL6/J mouse model assessed as reduction in hepatic triglyceride level at 1 mg/kg, ip measured after 8 weeks by colorimetric assay; assay type: functional, organism-based
Mus musculus [18] = assay: Reduction in hepatic steatosis in high fat diet-induced NAFLD C57BL6/J mouse model assessed as reduction in serum ALT level at 1 mg/kg, ip measured after 8 weeks; assay type: functional, organism-based
Mus musculus [19] = assay: Reduction in hepatic steatosis in high fat diet-induced NAFLD C57BL6/J mouse model assessed as reduction in serum AST level at 1 mg/kg, ip measured after 8 weeks; assay type: functional, organism-based
Mus musculus [20] = assay: Reduction in hepatic steatosis in high fat diet-induced NAFLD C57BL6/J mouse model assessed as reduction in serum cholesterol level at 1 mg/kg, ip measured after 8 weeks; assay type: functional, organism-based
Mus musculus [21] = assay: Reduction in hepatic steatosis in high fat diet-induced NAFLD C57BL6/J mouse model assessed as body weight gain at 1 mg/kg, ip measured after 8 weeks; assay type: functional, organism-based
Mus musculus [22] = assay: Reduction in hepatic steatosis in high fat diet-induced NAFLD C57BL6/J mouse model assessed as reduction in fat body mass at 1 mg/kg, ip measured after 8 weeks; assay type: functional, organism-based
Mus musculus [23] = assay: Reduction in hepatic steatosis in high fat diet-induced NAFLD C57BL6/J mouse model assessed as increase in lean body mass at 1 mg/kg, ip measured after 8 weeks; assay type: functional, organism-based
Mus musculus [24] = assay: Reduction in hepatic steatosis in high fat diet-induced NAFLD C57BL6/J mouse model assessed as improved glucose tolerance at 1 mg/kg, ip measured after 8 weeks by glucometer analysis; assay type: functional, organism-based
Mus musculus [25] = assay: Reduction in hepatic steatosis in high fat diet-induced NAFLD C57BL6/J mouse model assessed as reduction in adipose tissue inflammation at 1 mg/kg, ip measured after 8 weeks by H and E staining based analysis; assay type: functional, organism-based
Mus musculus [26] = assay: Reduction in hepatic steatosis in high fat diet-induced NAFLD C57BL6/J mouse model assessed as decrease in size of adipocytes in epididymis white adipose tissue at 1 mg/kg, ip measured after 8 weeks by H and E staining based analysis; assay type: functional, organism-based
Mus musculus [27] = assay: Reduction in hepatic steatosis in high fat diet-induced NAFLD C57BL6/J mouse model assessed as decrease in size of adipocytes in inguinal white adipose tissue at 1 mg/kg, ip measured after 8 weeks by H and E staining based analysis; assay type: functional, organism-based
Mus musculus [28] = assay: Reduction in hepatic steatosis in high fat diet-induced NAFLD C57BL6/J mouse model assessed as decrease in size of lipid droplet in brown adipose tissue at 1 mg/kg, ip measured after 8 weeks by H and E staining based analysis; assay type: functional, organism-based
Mus musculus [29] = assay: Reduction in hepatic steatosis in high fat diet-induced NAFLD C57BL6/J mouse model assessed as increase in multilocular adipocytes at 1 mg/kg, ip measured after 8 weeks by H and E staining based analysis; assay type: functional, organism-based

SMILES: N[C@@H](Cc1ccc(OCCN2CCC(c3noc4cc(F)ccc34)CC2)cc1)C(=O)O
inhibition [1]: 74.8%

SMILES: Cl.Cl.N[C@@H](Cc1ccc(OCC(O)CN2CCC(c3noc4cc(F)ccc34)CC2)cc1)C(=O)O (stereo partly drawn)
inhibition [1]: 90.8% | IC50 [4]: 2.15 nM | concentration at 1 h [2]: 1230 ng/mL | concentration at 1 h [3]: < 7.8 ng/mL

SMILES: Cl.Cl.N[C@@H](Cc1ccc(OCCCN2CCC(c3noc4cc(F)ccc34)CC2)cc1)C(=O)O
inhibition [1]: 92% | IC50 [4]: 0.17 nM | concentration at 1 h [2]: 901 ng/mL | concentration at 1 h [3]: < 7.8 ng/mL | remaining at 0.5 h [5]: > 99% | remaining at 0.5 h [6]: 98.5% | remaining at 0.5 h [7]: > 99% | inhibition (INH) (Cytochrome P450 1A2): 4.3% | inhibition (INH) (Cytochrome P450 2C9): 1.8% | inhibition (INH) (Cytochrome P450 2C19): < 1% | inhibition (INH) (Cytochrome P450 2D6): 31.9% | inhibition (INH) (Cytochrome P450 3A4): < 1% | inhibition at 10 µM (hERG): 30.9% | inhibition [8]: 68% | inhibition [9]: 98% | inhibition [10]: 22% | inhibition [11]: 50.4% | inhibition [12]: 16% | inhibition [13]: 4% | inhibition [14]: 24% | Activity (Mus musculus [15]): Active | Activity (Mus musculus [16]): Active | Activity (Mus musculus [17]): Active | Activity (Mus musculus [18]): Active | Activity (Mus musculus [19]): Active | Activity (Mus musculus [20]): inactive | Activity (Mus musculus [21]): Active | Activity (Mus musculus [22]): Active | Activity (Mus musculus [23]): Active | Activity (Mus musculus [24]): Active | Activity (Mus musculus [25]): Active | Activity (Mus musculus [26]): Active | Activity (Mus musculus [27]): Active | Activity (Mus musculus [28]): Active | Activity (Mus musculus [29]): Active

SMILES: N[C@@H](Cc1ccc(OCCN2CCC(C(=O)c3ccc(F)cc3)CC2)cc1)C(=O)O
inhibition [1]: 35.1%

SMILES: N[C@@H](Cc1ccc(OCCCCN2CCC(c3noc4cc(F)ccc34)CC2)cc1)C(=O)O
inhibition [1]: 91.4% | IC50 [4]: 3.6 nM

The next lines start with the values.

inhibition [1]: 43.4% | concentration at 1 h [2]: 114 ng/mL | concentration at 1 h [3]: < 7.8 ng/mL
SMILES: O=C(O)CCc1ccc(OCCN2CCN(c3nsc4ccccc34)CC2)cc1

inhibition [1]: 9.53%
SMILES: O=C(O)Cc1ccc(OCCN2CCN(c3nsc4ccccc34)CC2)cc1

inhibition [1]: 53.4%
SMILES: N[C@H](Cc1ccc(OCCN2CCN(c3nsc4ccccc34)CC2)cc1)C(=O)O

inhibition [1]: 43.2%
SMILES: N[C@@H](Cc1ccc(OCCN2CCN(c3cccc(Cl)c3Cl)CC2)cc1)C(=O)O

inhibition [1]: 33.3%
SMILES: O=C(O)c1ccc(OCCN2CCN(c3nsc4ccccc34)CC2)cc1

inhibition [1]: 73.9% | concentration at 1 h [2]: 165 ng/mL | concentration at 1 h [3]: < 7.8 ng/mL
SMILES: Cl.Cl.N[C@@H](Cc1ccc(OCCN2CCN(c3nsc4ccccc34)CC2)cc1)C(=O)O
